Data as given in patent US8906868B2, “Aminoglycoside derivatives” (Rempex Pharmaceuticals, Inc., priority 2010, dated 2014).
Where two headings read alike, the source gives them in different places.

Tests used:
[1] = tested on: Pseudomonas aeruginosa (ATCC 27853); experiment: MIC, broth microdilution; conditions: Pseudomonas aeruginosa
[2] = tested on: ACM1005 ATCC 19004; experiment: MIC, broth microdilution; format: cell-based, Acinetobacter baumannii; conditions: Acinetobacter baumannii, ATCC19004; Table 4; read-out: Compound MIC on Bacterial Strains: Acinetobacter baumannii ACM1005 ATCC 19004
Experimental: (§1) To compare microbiological activity of the test compounds, minimum inhibitory concentrations (MIC.s) were determined. Antibiotic MICs were obtained using the broth microdilution method according to Clinical and Laboratory Standards Institute (CLSI) approved guidelines (Methods for dilution antimicrobial susceptibility tests for bacteria that grow aerobically; approved standard—7th ed. CLSI document M7-A7. Clinical and Laboratory Standards Institute, Wayne, Pa., incorporated herein by reference in its entirety). Antibiotics were dissolved as specified by CLSI (Performance standards for antimicrobial susceptibility testing; Seventeenth informational supplement. CLSI document M100-S17. Clinical and Laboratory Standards Institute, Wayne, Pa., incorporated herein by reference in its entirety), and were serially diluted 2-fold in cation adjusted Mueller Hinton Broth (CaMHB) at 2× concentration. Bacterial inoculums were prepared in CaMHB by suspension of a colony from an agar plate that was prepared the previous day to obtain a final concentration of 5×10^5CFU/ml. The plates were incubated for 18 hours at 35° C. […] MIC.s were determined by reading the turbidity of plate wells using a SpectraMax Plus384 plate reader (Molecular Devices, Sunnyvale, Calif., USA) at 600 nm and were confirmed by visual inspection.

[3] = tested on: PAM3072 aac(6′)-II; experiment: microbe, parasite or virus in culture; format: cell-based, Pseudomonas aeruginosa; conditions: Pseudomonas aeruginosa, Table 5; read-out: Compound MIC on Bacterial Strains: Pseudomonas aeruginosa PAM3072 aac(6′)-II
Experimental: as §1

[4] = tested on: PAM3073 aac(6′)-I; experiment: microbe, parasite or virus in culture; format: cell-based, Pseudomonas aeruginosa; conditions: Pseudomonas aeruginosa, Table 5; read-out: Compound MIC on Bacterial Strains: Pseudomonas aeruginosa PAM3073 aac(6′)-I
Experimental: as §1

[5] = tested on: EC1001 acc(6′)-Ib; experiment: microbe, parasite or virus in culture; format: cell-based, Escherichia coli; conditions: Escherichia coli; Table 4; read-out: Compound MIC on Bacterial Strains: Escherichia coli EC1001 acc(6′)-Ib
Experimental: as §1

[6] = tested on: ECM6007 aac(6′) + aph(2″); experiment: microbe, parasite or virus in culture; format: cell-based, Escherichia coli; conditions: Escherichia coli, 18 h; Table 4; read-out: Compound MIC on Bacterial Strains: Escherichia coli ECM6007 aac(6′) + aph(2″)
Experimental: as §1

[7] = tested on: ACM1006 acc(6′)-Ib; experiment: microbe, parasite or virus in culture; format: cell-based, Acinetobacter baumannii; conditions: Acinetobacter baumannii; Table 4; read-out: Compound MIC on Bacterial Strains: Acinetobacter baumannii ACM1006 acc(6′)-Ib
Experimental: as §1

[8] = tested on: ECM6010 ant(2″)-I; experiment: microbe, parasite or virus in culture; format: cell-based, Escherichia coli; conditions: Escherichia coli, read-out: Compound MIC on Bacterial Strains: ECM6010 ant(2″)-I
Experimental: as §1
(§2) Activity of the test compounds was determined using QC strains and strains with known aminoglycoside resistance mechanisms (TABLE 3). This specific panel contained strains expressing enzymes that covalently modify N2″, N3 and N3′ positions.

[9] = tested on: ECM6006 aph(3′)-III; experiment: microbe, parasite or virus in culture; format: cell-based, Escherichia coli; conditions: Escherichia coli, read-out: Compound MIC on Bacterial Strains: ECM6006 aph(3′)-III
Experimental: as §1, §2

[10] = tested on: ECM6009 aac(3)-II; experiment: microbe, parasite or virus in culture; format: cell-based, Escherichia coli; conditions: Escherichia coli, read-out: Compound MIC on Bacterial Strains: ECM6009 aac(3)-II
Experimental: as §1, §2

[11] = tested on: ECM6011 aph(3′)-I; experiment: microbe, parasite or virus in culture; format: cell-based, Escherichia coli; conditions: Escherichia coli, read-out: Compound MIC on Bacterial Strains: ECM6011 aph(3′)-I
Experimental: as §1, §2

[12] = tested on: ECM6003 rmtB; experiment: microbe, parasite or virus in culture; format: cell-based, Escherichia coli; conditions: Escherichia coli; Table 3; read-out: Compound MIC on Bacterial Strains: ECM6003 rmtB
Experimental: as §1, §2
The panel also contained a strain expressing ribosomal RNA methylase, RmtB.

[13] = tested on: Klebsiella pneumonia (ATCC 43816); experiment: MIC, broth microdilution; conditions: Klebsiella pneumoniae, ATCC43816, read-out: Compound MIC on Bacterial Strains: K. pneumonia ATCC 43816
[14] = tested on: Sa 287 aac(6′) + aph(2″); experiment: microbe, parasite or virus in culture; format: cell-based, Staphylococcus aureus; conditions: Staphylococcus aureus, 18 h; Table 5; read-out: Compound MIC on Bacterial Strains: Staphylococcus aureus Sa 287 aac(6′) + aph(2″)
Experimental: as §1

[15] = tested on: Acinetobacter baumannii (ATCC 19606); experiment: MIC, broth microdilution; conditions: Acinetobacter baumannii, ATCC19606, read-out: Compound MIC on Bacterial Strains: A. baumannii ATCC 19606
[16] = tested on: EC1002 aph(3′)-IV; experiment: organism not typed; format: cell-based; conditions: read-out: Compound MIC on Bacterial Strains: EC1002 aph(3′)-IV
Experimental: as §1, §2

[17] = tested on: Staphylococcus aureus (ATCC 29213); experiment: MIC, broth microdilution; conditions: Staphylococcus aureus
[18] = tested on: Escherichia coli (ATCC 25922); experiment: MIC, broth microdilution; conditions: Escherichia coli
[19] = ATCC27853, read-out: Compound MIC on Bacterial Strains: Pseudomonas aeruginosa PAM3034 ATCC 27853
[20] = ATCC29213, read-out: Compound MIC on Bacterial Strains: Staphylococcus aureus SAM1000 ATCC 29213, Table 5
[21] = ATCC25922, read-out: Compound MIC on Bacterial Strains: ECM6000 ATCC 25922

Measured: MIC

CNC[C@@H]1CCC(N)[C@@H](OC2C(O)C(O[C@H]3OCC(C)(O)[C@H](NC)C3O)[C@H](NC(=O)[C@@H](O)C(O)CN)C[C@@H]2N)O1 (stereo in doubt) [Compound 23, (2S,3R)-4-amino-N-((1R,2S,3S,4R,5S)-5-amino-4-((2R,3R,6S)-3-amino-6-((methylamino)methyl)tetrahydro-2H-pyran-2-yloxy)-2-((2R,3R,4R,5R)-3,5-dihydroxy-5-methyl-4-(methylamino)tetrahydro-2H-pyran-2-yloxy)-3-hydroxycyclohexyl)-2,3-dihydroxybutanamide]
< 1 µg/mL: [6] | [13] | [17]; ATCC29213, read-out: Compound MIC on Bacterial Strains: S. aureus ATCC 29213, QC strain, Table 2 | [18]; ATCC25922, read-out: Compound MIC on Bacterial Strains: E. coli ATCC 25922
1 to 8 µg/mL: [1]; ATCC27853, read-out: Compound MIC on Bacterial Strains: P. aeruginosa ATCC 27853 | [1]; [19] | [2] | [4] | [5] | [7] | [8] | [9] | [10] | [11] | [12] | [14] | [16] | [17]; [20] | [18]; [21] | [18]; ATCC25922, read-out: Compound MIC on Bacterial Strains: Escherichia coli ECM6000 ATCC 25922
> 8 µg/mL: [3] | [15]

CN[C@@H]1C(O)[C@@H](OC2C(O)C(O[C@H]3O[C@H](CNCCO)CCC3N)[C@@H](N)C[C@H]2NC(=O)[C@@H](O)[C@@H](O)CN)OCC1(C)O (stereo partly shown) [Compound 4]
< 1 µg/mL: [10] | [11]
1 to 8 µg/mL: [1]; [19] | [4] | [8] | [9] | [14] | [16] | [17]; [20] | [18]; [21]
> 8 µg/mL: [3] | [12]
